The values that follow come from patent US10583137B2, “Triazole DAGLα inhibitors” (THE SCRIPPS RESEARCH INSTITUTE, priority 2015, dated 2020).

Test [1] relates to DSI at CA1 pyramidal neuron synapses. The test can be described thus: depolarization-induced suppression of inhibition (DSI) in hippocampal slices. The conditions noted are these: 10 μM, bath application 30 min. On the procedure:
DSI was evaluated at CA1 pyramidal neuron synapses in hippocampal slices. DSI was induced in vehicle-treated hippocampal slices by applying a brief depolarization while evoking […] through stimulation of synaptic inhibitory inputs (FIG. 7C). Bath application of compound 14 (10 μM) and compound 17 (1 μM), but not compound 22 (10 μM), for 30 min before starting electrophysiological recordings blocked hippocampal DSI (FIGS. 7C and D).

The target in a further test is DAGLβ (hDAGLβ-FLAG) (Homo sapiens (Human), UniProt Q8NCG7). Kind of test: competitive ABPP, membrane proteome of transfected HEK293T cells. The conditions noted are these: 0.8 μM (stated under the cell); read-out: DAGLβ % inh. 0.8 μM. It counts as biochemical. A digest of the protocol:
(§1)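 HEK293T membrane proteome (1 mg/ml) expressing FLAG-tagged human DAGLα or DAGLβ, treated 30 min at room temperature with compound, then 30 min with HT-01 or FP-Rh probe (1 μM). Bands separated by SDS-PAGE were normalized to DMSO for IC50 by variable-slope fit.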

A further test addresses DAGLα (hDAGLα-FLAG) (Homo sapiens (Human), UniProt Q9Y4D2). Described as above. It counts as biochemical. The conditions noted are these: 0.8 μM (stated under the cell); read-out: DAGLα % inh. 0.8 μM. A digest of the protocol: as §1
A further test deals with recombinant human DAGLα (Homo sapiens (Human), UniProt Q9Y4D2). Kind of test: SAG substrate assay (in vitro inhibition of 2-AG biosynthesis), membrane lysates from HEK293T cells. Conditions: any dose tested. It is filed as biochemical. On the procedure:
DAGL modulators were tested for in vitro inhibition of 2-AG biosynthesis using a 1-stearoyl-2-arachidonoyl-sn-glycerol (SAG) substrate assay in DAGL-transfected HEK293 cells.
The SAG substrate assay, as described in Journal of lipid research 56(4):927-935, was performed using the following assay conditions: 0.2 U/mL glycerol kinase (GK), glycerol-3-phosphate oxidase (GPO) and horseradish peroxidase (HRP), 0.125 mM ATP, 10 μM Amplifu™Red, 5% DMSO in a total volume of 200 μL. The assay additionally contained SAG, a DAGL modulator, and membrane lysates from HEK293T cells expressing recombinant human DAGLα or DAGLβ.
Membranes were prepared from HEK293T cells transiently transfected with DAGLα or DAGLβ plasmids encoding for full length DAGLα or DAGLβ, respectively (Angewandte Chemie 52(46):12081-12085; Journal of Medicinal Chemistry 57(15):6610-6622). Briefly, one day prior to transfection, 10^7 cells were seeded in a 15 cm petri dish. The seeded cells were transfected by the addition of a 3:1 mixture of polyethyleneimine (60 μg) and plasmid DNA (20 μg) in 2 mL serum free medium. The medium was refreshed after 24 hr, and after 72 hr the cells were harvested by suspending them in 20 mL medium. The suspension was centrifuged for 10 min at 1000 rpm, and the supernatant was removed. The cell pellet was stored at −80° C. until use. Cell pellets were thawed on ice and suspended in lysis buffer A (20 mM HEPES, 2 mM DTT, 0.25 M sucrose, 1 mM MgCl2, lx protease inhibitor cocktail (Roche cOmplete EDTA free), 25 U/μL Benzonase). The suspension was homogenized by polytrone (3×7 sec) and incubated for 30 min on ice. The suspension was subjected to ultracentrifugation (100,000×g, 30 min, 4° C., Beckman Coulter, Type Ti70 rotor) to yield the cytosolic fraction in the supernatant and the membrane fraction as a pellet. The pellet was resuspended in lysis buffer B (20 mM HEPES, 2 mM DTT, lx protease inhibitor cocktail (Roche cOmplete EDTA free)) and the protein concentration determined with Quick Start Bradford assay (Biorad). The protein fractions were diluted to a total protein concentration of 1 mg/mL and stored in small aliquots at −80° C. until use.

The subject of test [2] is DSE at parallel fiber to Purkinje cell synapses. The test can be described thus: depolarization-induced suppression of excitation (DSE) in acute cerebellar slices. The conditions noted are these: 10 μM. From the text:
Various forms of synaptic plasticity are regulated by 2-AG signaling, included depolarization-induced suppression of excitation (DSE) and inhibition (DSI). DSE was examined at parallel fiber (PF) to Purkinje cell (PC) synapses in acute cerebellar slices. A brief depolarization of PCs induced robust transient DSE at PF-PC synapses in vehicle treated cerebellar slices (FIG. 7A).

The subject of test [3] is LPS-induced neuroinflammatory responses (brain lipids, cytokines, body temperature). The test can be described thus: LPS-induced neuroinflammatory responses in mouse brain. It is filed as in vivo. Conditions: mice. On the procedure: The effects of pharmacological and genetic inactivation of DAGL activity on neuroinflammatory responses (brain prostaglandin and cytokine production) induced by high-dose lipopolysaccharide treatment was examined.
Mice were treated with compounds 14, 17, control compound 22 or vehicle (50 mg/kg, i.p) for 60-90 min, followed by LPS (20 mg/kg, i.p., 6 hr) or vehicle. The mice were subsequently sacrificed and their brain lipid and cytokine profiles analyzed. […] The LPS-induced elevations in both 2-AG and PGE2 were suppressed in compound 14 and compound 17 treated mice and DAGLα/mice, but not compound 22 treated mice. […] LPS-induced anapyrexia was blunted in compound 14 and 17 treated mice (FIG. 8E) and DAGLα−/− mice (FIG. 8F), but not compound 22 treated mice (FIG. 8E).

For test [4], the system named is brain 2-AG and other DAGL-regulated lipids. Kind of test: brain lipid profiles of treated mice by LC-MS. It counts as in vivo, mouse. The conditions noted are these: 50 mg/kg i.p., 4 hr post-dosing. As to the method: Brain lipid profiles of mice treated with compounds 14, 17 and control compound 22.
Mice were treated with 50 mg/kg compound (i.p.), followed by lipid profiling using LC-MS at a 4 hr post-dosing. […] This depletion of brain 2-AG in compound 14 and 17-treated mice was dose-dependent (data not shown) and was observed within 2 h after injection. […] The changes in each lipid species were dose-dependent and were absent in compound 22 treated mice (FIGS. 6C, E, G, I, and K).

Where [5] appears, read: 50 mg/kg i.p. 60-90 min before LPS 20 mg/kg i.p., 6 hr.

DAGLβ (hDAGLβ-FLAG), sequence (Q8NCG7 whole entry): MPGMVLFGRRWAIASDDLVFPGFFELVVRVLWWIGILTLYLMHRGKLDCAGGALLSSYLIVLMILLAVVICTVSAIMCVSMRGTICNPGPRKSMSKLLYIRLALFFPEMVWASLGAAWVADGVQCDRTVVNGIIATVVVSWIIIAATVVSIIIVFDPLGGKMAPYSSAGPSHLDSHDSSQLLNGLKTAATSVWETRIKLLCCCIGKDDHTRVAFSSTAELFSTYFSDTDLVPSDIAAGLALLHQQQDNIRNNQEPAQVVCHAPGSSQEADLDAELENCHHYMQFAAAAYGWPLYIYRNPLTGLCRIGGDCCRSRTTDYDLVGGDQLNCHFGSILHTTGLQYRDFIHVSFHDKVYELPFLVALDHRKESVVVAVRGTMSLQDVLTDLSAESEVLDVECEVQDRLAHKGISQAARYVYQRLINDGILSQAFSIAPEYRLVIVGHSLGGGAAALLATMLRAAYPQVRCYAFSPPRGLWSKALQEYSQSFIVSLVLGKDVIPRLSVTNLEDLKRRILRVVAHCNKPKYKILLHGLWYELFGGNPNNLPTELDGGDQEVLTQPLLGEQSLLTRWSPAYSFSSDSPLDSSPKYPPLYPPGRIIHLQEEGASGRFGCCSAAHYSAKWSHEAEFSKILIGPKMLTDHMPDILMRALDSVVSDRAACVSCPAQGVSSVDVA
recombinant human DAGLα, sequence (Q9Y4D2 whole entry): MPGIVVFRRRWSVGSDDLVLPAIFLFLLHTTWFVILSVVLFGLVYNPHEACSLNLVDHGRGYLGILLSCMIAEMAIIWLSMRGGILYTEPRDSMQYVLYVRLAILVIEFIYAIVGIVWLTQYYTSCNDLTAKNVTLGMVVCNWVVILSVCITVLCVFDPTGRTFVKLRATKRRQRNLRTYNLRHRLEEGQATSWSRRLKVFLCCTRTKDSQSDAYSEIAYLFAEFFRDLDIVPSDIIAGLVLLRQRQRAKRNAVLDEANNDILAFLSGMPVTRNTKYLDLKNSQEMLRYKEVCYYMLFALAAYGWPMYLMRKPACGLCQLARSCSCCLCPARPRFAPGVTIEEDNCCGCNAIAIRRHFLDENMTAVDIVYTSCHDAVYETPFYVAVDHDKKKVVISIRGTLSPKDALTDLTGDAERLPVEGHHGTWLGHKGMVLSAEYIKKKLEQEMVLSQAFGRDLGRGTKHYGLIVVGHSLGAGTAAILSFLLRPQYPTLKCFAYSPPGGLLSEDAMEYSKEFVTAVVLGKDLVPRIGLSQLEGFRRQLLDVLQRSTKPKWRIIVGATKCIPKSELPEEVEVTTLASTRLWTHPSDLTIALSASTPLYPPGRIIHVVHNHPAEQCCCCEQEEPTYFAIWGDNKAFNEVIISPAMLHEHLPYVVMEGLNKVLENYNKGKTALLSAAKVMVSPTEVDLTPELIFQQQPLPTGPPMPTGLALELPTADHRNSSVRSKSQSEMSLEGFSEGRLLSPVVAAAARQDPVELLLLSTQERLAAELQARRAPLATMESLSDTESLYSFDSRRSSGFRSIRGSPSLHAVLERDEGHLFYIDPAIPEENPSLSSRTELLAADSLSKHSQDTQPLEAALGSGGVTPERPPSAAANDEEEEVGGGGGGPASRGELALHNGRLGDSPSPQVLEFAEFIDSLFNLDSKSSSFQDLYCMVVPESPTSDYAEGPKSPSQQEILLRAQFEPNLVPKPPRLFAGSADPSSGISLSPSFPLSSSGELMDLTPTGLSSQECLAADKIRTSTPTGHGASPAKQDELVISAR
DAGLα (hDAGLα-FLAG), sequence (Q9Y4D2 whole entry): as above

For `CC(C)(C)OC(=O)N1CCN(C(=O)n2cc(-c3ccc(OC(F)(F)F)cc3)nn2)C(c2ccccc2)C1` (centres unmarked) [Compound 22, tert-butyl 3-phenyl-4-(4-(4-(trifluoromethoxy)phenyl)-1H-1,2,3-triazole-1-carbonyl)piperazine-1-carboxylate], the “effect on hippocampal DSI” value in test [1] is listed as “not”. At DAGLβ (hDAGLβ-FLAG), the inhibition at 0.8 µM was 0 to 25%. In addition, the inhibition at 0.8 µM on DAGLα (hDAGLα-FLAG) was 0 to 25%. Moreover, the “inhibition of DAGLα” value on recombinant human DAGLα was “did not substantially inhibit”. In addition, in test [2], the “effect on cerebellar DSE” value is on record as “did not alter”. Also, in test [3] (setting [5]), the “LPS-induced elevation in brain 2-AG” value was “not” and the “LPS-induced elevation in brain PGE2” value is “not”. The LPS-induced anapyrexia entry in test [3] (50 mg/kg i.p. before LPS) was “not”. Besides, in test [3] (50 mg/kg i.p., no LPS), the “brain AA under basal control conditions” value was “not” and the “brain PGE2 under basal control conditions” value was “not”. Further, in test [4], the “brain 2-AG levels” value is given as “not”, the “brain AA” value was “absent”, the “brain AEA” value is “absent” and the “brain C18:1/C20:4 DAG” value is “absent”. Moreover, in test [4], the “brain PGD2” value was “absent”, the “brain PGE2” value is “absent” and the “brain SAG” value is “absent”.
